Assay results reported in PubChem BioAssay AID328 (DTP/NCI, 2004).
Values joined by “and” are separate entries in the source; they are usually repeats but may differ in a detail not shown here. Equal entries are not always repeated. Toxic doses and inconclusive results are not listed.

Test system: BDF1 mice, P388 leukemia ip, median survival T/C
Test: NCI In Vivo Anticancer Drug Screen. Data for tumor model P388 Leukemia (intraperitoneal) in B6D2F1 (BDF1) mice
Conditions: endpoint: median survival time, higher = longer survival
Method in brief: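 Antitumour effect was judged in vivo: survival in drug-treated mice, normalised to that of vehicle-dosed controls, gives the reported T/C.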

[1] = dose: 50.0 mg/kg/injection, schedule: Q01DX009 (ip), vehicle: saline with Tween-80
[2] = dose: 100.0 mg/kg/injection, schedule: Q04DX003 (ip), vehicle: saline with Tween-80

Question: Which T/C (dose: 0.12 mg/kg/injection, schedule: Q01DX009 (ip), vehicle: saline) does the source give for `CC[n+]1ccc(Nc2ccc(NC(=O)c3ccc(C(=O)Nc4ccc(Nc5cc[n+](CC)c(N)n5)cc4)cc3)cc2)nc1N` here?
Answer: 150 % of control

Question: And the T/C (dose: 0.25 mg/kg/injection, schedule: Q01DX009 (ip), vehicle: saline)?
Answer: 150 % of control

Question: And the T/C (dose: 0.25 mg/kg/injection, schedule: Q04DX003 (ip), vehicle: Klucel (hydroxypropylcellulose) (HPC))?
Answer: 100 % of control

Question: And the T/C (dose: 0.5 mg/kg/injection, schedule: Q01DX009 (ip), vehicle: saline)?
Answer: 155 % of control

Question: What about the T/C (dose: 0.5 mg/kg/injection, schedule: Q04DX003 (ip), vehicle: Klucel (hydroxypropylcellulose) (HPC)) of the same molecule?
Answer: 95 % of control

Question: And the T/C (dose: 1.0 mg/kg/injection, schedule: Q04DX003 (ip), vehicle: Klucel (hydroxypropylcellulose) (HPC))?
Answer: 109 % of control

Question: What about the T/C (dose: 1.65 mg/kg/injection, schedule: Q01DX009 (ip), vehicle: saline) of the same molecule?
Answer: 160 % of control

Question: And the T/C (dose: 2.5 mg/kg/injection, schedule: Q01DX009 (ip), vehicle: saline)?
Answer: 175 % of control and 177 % of control

Question: What about the T/C (dose: 3.75 mg/kg/injection, schedule: Q01DX009 (ip), vehicle: saline) of the same molecule?
Answer: 170 % of control

Question: What about the T/C (dose: 5.0 mg/kg/injection, schedule: Q04DX003 (ip), vehicle: saline) of the same molecule?
Answer: 177 % of control

Question: What about the T/C (dose: 10.0 mg/kg/injection, schedule: Q01DX009 (ip), vehicle: saline) of the same molecule?
Answer: 190 % of control

Question: And the T/C (dose: 20.0 mg/kg/injection, schedule: Q01DX009 (ip), vehicle: saline)?
Answer: 300 % of control

Question: What about the T/C (dose: 30.0 mg/kg/injection, schedule: Q04DX003 (ip), vehicle: saline) of the same molecule?
Answer: 195 % of control

Question: And the T/C (dose: 45.0 mg/kg/injection, schedule: Q04DX003 (ip), vehicle: saline)?
Answer: 200 % of control

Question: What about the T/C (dose: 50.0 mg/kg/injection, schedule: Q04DX003 (ip), vehicle: saline) of the same molecule?
Answer: 200 % of control

Question: What about the T/C (dose: 65.0 mg/kg/injection, schedule: Q04DX003 (ip), vehicle: saline) of the same molecule?
Answer: 216 % of control

Question: What about the T/C (dose: 80.0 mg/kg/injection, schedule: Q01DX009 (ip), vehicle: saline) of the same molecule?
Answer: 109 % of control

Question: And the T/C (dose: 100.0 mg/kg/injection, schedule: Q04DX003 (ip), vehicle: saline)?
Answer: 250 % of control and 263 % of control

Question: And the T/C (dose: 150.0 mg/kg/injection, schedule: Q04DX003 (ip), vehicle: saline)?
Answer: 104 % of control

Question: What about the T/C (dose: 2.5 micrograms/kg/injection, schedule: Q01DX009 (ip), vehicle: saline) of the same molecule?
Answer: 90 % of control

Question: And the T/C (dose: 5.0 micrograms/kg/injection, schedule: Q01DX009 (ip), vehicle: saline)?
Answer: 95 % of control

Question: And the T/C (dose: 10.0 micrograms/kg/injection, schedule: Q01DX009 (ip), vehicle: saline)?
Answer: 100 % of control

Question: How did the T/C [1] turn out when `O=C(NC(=O)c1c(F)cccc1F)Nc1nc2c(Cl)cccc2s1` was run?
Answer: 93 % of control

Question: And the T/C (dose: 100.0 mg/kg/injection, schedule: Q01DX009 (ip), vehicle: saline with Tween-80)?
Answer: 93 % of control

Question: What about the T/C (dose: 200.0 mg/kg/injection, schedule: Q01DX009 (ip), vehicle: saline with Tween-80) of the same molecule?
Answer: 94 % of control

Question: What does the source list for `CC(C)(C)CC(C)(C)c1ccc(O)cc1O`?
Answer: T/C (dose: 25.0 mg/kg/injection, schedule: Q01DX009 (ip), vehicle: saline with Tween-80): 120 % of control; T/C [1]: 95 % of control

Question: What does the source list for `CC(C)CC(NC(=O)c1ccccc1)C(=O)O` (stereo unspecified)?
Answer: T/C (dose: 100.0 mg/kg/injection, schedule: Q04DX003 (ip), vehicle: alkali diluted with water): 99 % of control; T/C (dose: 200.0 mg/kg/injection, schedule: Q04DX003 (ip), vehicle: alkali diluted with water): 99 % of control; T/C (dose: 400.0 mg/kg/injection, schedule: Q04DX003 (ip), vehicle: alkali diluted with water): 108 % of control

Question: How did the T/C (dose: 50.0 mg/kg/injection, schedule: Q01DX001 (ip), vehicle: saline) turn out when `O=C(O)c1sccc1-c1cccc2ccccc12` was run?
Answer: 104 % of control

Question: What about the T/C (dose: 100.0 mg/kg/injection, schedule: Q01DX001 (ip), vehicle: saline) of the same molecule?
Answer: 100 % of control

Question: And the T/C (dose: 200.0 mg/kg/injection, schedule: Q01DX001 (ip), vehicle: saline)?
Answer: 95 % of control

Question: How did the T/C [2] turn out when `Cc1ccccc1C(=O)NCC(=O)O` was run?
Answer: 104 % of control

Question: And the T/C (dose: 200.0 mg/kg/injection, schedule: Q04DX003 (ip), vehicle: saline with Tween-80)?
Answer: 100 % of control

Question: And the T/C (dose: 400.0 mg/kg/injection, schedule: Q04DX003 (ip), vehicle: saline with Tween-80)?
Answer: 100 % of control

Question: How did the T/C (dose: 6.25 mg/kg/injection, schedule: Q01DX001 (ip), vehicle: saline) turn out when `[NH2-].[NH2-].[NH2-].[NH2-].[NH2-].[NH2-].[Ni]` was run?
Answer: 99 % of control

Question: And the T/C (dose: 12.5 mg/kg/injection, schedule: Q01DX001 (ip), vehicle: saline)?
Answer: 103 % of control

Question: For `CSc1nc(C)c(Br)c(Sc2nc(N)nc3nc[nH]c23)n1`, which T/C (dose: 66.0 mg/kg/injection, schedule: Q04DX003 (ip), vehicle: saline with Tween-80) is on record?
Answer: 154 % of control

Question: What about the T/C [2] of the same molecule?
Answer: 150 % of control

Question: And the T/C (dose: 150.0 mg/kg/injection, schedule: Q04DX003 (ip), vehicle: saline with Tween-80)?
Answer: 150 % of control

Question: For `O=CNC(Cc1cccc(N(CCCl)CCCl)c1)C(=O)O` (stereo unspecified), which T/C (dose: 11.0 mg/kg/injection, schedule: Q04DX003 (ip), vehicle: saline sonified) is on record?
Answer: 94 % of control

Question: What about the T/C (dose: 16.5 mg/kg/injection, schedule: Q04DX003 (ip), vehicle: saline sonified) of the same molecule?
Answer: 100 % of control

Question: What about the T/C (dose: 25.0 mg/kg/injection, schedule: Q04DX003 (ip), vehicle: saline sonified) of the same molecule?
Answer: 122 % of control

Question: What about the T/C (dose: 50.0 mg/kg/injection, schedule: Q04DX003 (ip), vehicle: saline with Tween-80) of the same molecule?
Answer: 177 % of control

Question: What about the T/C [2] of the same molecule?
Answer: 272 % of control
